This note sets out measurements from PubChem BioAssay AID330 (DTP/NCI, 2004).

The subject of this test is P388 leukemia ip, CD2F1 mice, survival T/C. The test is described as follows: NCI In Vivo Anticancer Drug Screen. Data for tumor model P388 Leukemia (intraperitoneal) in CD2F1 (CDF1) mice. As to conditions: endpoint: median survival time, higher = longer survival. The essentials:
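Mice carrying the transplanted tumor received test compound or vehicle. Survival was recorded in each group, and the value is the treated-group measurement divided by that of the vehicle-treated control group.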

The mark [1] stands for this setting: dose: 100.0 mg/kg/injection, schedule: Q04DX003 (ip), vehicle: suspension in saline.
[2] abbreviates: dose: 200.0 mg/kg/injection, schedule: Q04DX003 (ip), vehicle: suspension in saline.
Where [3] appears, read: dose: 400.0 mg/kg/injection, schedule: Q04DX003 (ip), vehicle: suspension in saline.
Setting [4] is: dose: 50.0 mg/kg/injection, schedule: Q01DX009 (ip), vehicle: saline with Tween-80.
[5] abbreviates: dose: 100.0 mg/kg/injection, schedule: Q01DX009 (ip), vehicle: saline with Tween-80.
The mark [6] stands for this setting: dose: 200.0 mg/kg/injection, schedule: Q01DX009 (ip), vehicle: saline with Tween-80.
Setting [7] is: dose: 50.0 mg/kg/injection, schedule: Q01DX009 (ip), vehicle: saline.

Values joined by “and” are separate entries in the source; they are usually repeats but may differ in a detail not shown here. Equal values may be shown once. Inconclusive results and toxic doses are left out. Peptide text beside a SMILES is read from it. * marks the point of attachment. Trt = c1ccc(C(c2ccccc2)(c2ccccc2)*)cc1; Cbz = O=C(OCc1ccccc1)*

As for `CC(=O)Nc1ccc2c(C)ccnc2c1`, the T/C reads like this: (dose: 50.0 mg/kg/injection, schedule: Q01DX009 (ip), vehicle: distilled water + alcohol) 103 % of control; (dose: 100.0 mg/kg/injection, schedule: Q01DX009 (ip), vehicle: distilled water + alcohol) 104 % of control; (dose: 200.0 mg/kg/injection, schedule: Q01DX009 (ip), vehicle: distilled water + alcohol) 105 % of control.

Turning to `CNC(=O)NNC(=O)c1ccccc1Cl`, the T/C (dose: 60.0 mg/kg/injection, schedule: Q01DX005 (ip), vehicle: saline with Tween-80) was 106 % of control; the T/C (dose: 120.0 mg/kg/injection, schedule: Q01DX005 (ip), vehicle: saline with Tween-80) was 101 % of control; the T/C (dose: 240.0 mg/kg/injection, schedule: Q01DX005 (ip), vehicle: saline with Tween-80) is 103 % of control.

Regarding `CC1(C)CC([N+](C)(C)CCCCCC[N+](C)(C)C2CC(C)(C)N(O)C(C)(C)C2)CC(C)(C)N1O`, the T/C by setting is: (dose: 12.5 mg/kg/injection, schedule: Q04DX003 (ip), vehicle: saline) 105 % of control; (dose: 25.0 mg/kg/injection, schedule: Q04DX003 (ip), vehicle: saline) 100 % of control; (dose: 50.0 mg/kg/injection, schedule: Q04DX003 (ip), vehicle: saline) 103 % of control and 108 % of control.

Turning to `COc1ccc(-[n+]2noc(N)n2)cc1`, the T/C is 99 % of control (dose: 3.13 mg/kg/injection, schedule: Q01DX009 (ip), vehicle: water); 102 % of control (dose: 6.25 mg/kg/injection, schedule: Q01DX009 (ip), vehicle: water); 108 % of control (dose: 12.5 mg/kg/injection, schedule: Q01DX009 (ip), vehicle: water); 116 % of control (dose: 25.0 mg/kg/injection, schedule: Q01DX009 (ip), vehicle: water); 120 % of control (dose: 50.0 mg/kg/injection, schedule: Q01DX009 (ip), vehicle: water).

`CS(=O)(=O)Nc1ccc(Nc2c3ccccc3nc3cc([N+](=O)[O-])ccc23)cc1`: the T/C is 121 % of control (dose: 0.09 mg/kg/injection, schedule: Q01DX009 (ip), vehicle: saline with Tween-80); 169 % of control (dose: 0.75 mg/kg/injection, schedule: Q01DX009 (ip), vehicle: saline with Tween-80); 169 % of control (dose: 1.5 mg/kg/injection, schedule: Q01DX009 (ip), vehicle: saline with Tween-80); 177 % of control (dose: 3.0 mg/kg/injection, schedule: Q01DX009 (ip), vehicle: saline with Tween-80).

For `COc1ccc(C2C3CCCC(C3O)C(c3ccc(OC)cc3)N2C)cc1` (stereo not given), the T/C reads like this: under setting [1], 103 % of control; under setting [2], 104 % of control; under setting [3], 100 % of control.

On to `O=C(/C=C/c1ccc(OCc2ccccc2)cc1)c1ccccc1[N+](=O)[O-]`, for which the T/C runs as follows: under setting [4], 104 % of control; under setting [5], 101 % of control; under setting [6], 92 % of control.

For the compound `COc1ccc(-c2nn(C)c3c2C(=O)C=CC3=O)cc1OC`, the T/C runs as follows: (dose: 100.0 mg/kg/injection, schedule: Q01DX001 (ip), vehicle: Klucel (hydroxypropylcellulose) (HPC)) 92 % of control; (dose: 200.0 mg/kg/injection, schedule: Q01DX001 (ip), vehicle: Klucel (hydroxypropylcellulose) (HPC)) 106 % of control; (dose: 400.0 mg/kg/injection, schedule: Q01DX001 (ip), vehicle: Klucel (hydroxypropylcellulose) (HPC)) 95 % of control.

On to `CCCCCCC1N=C(N)N=C(N)N1c1cccc(Cl)c1` (stereo not given), for which the T/C is 118 % of control (dose: 12.5 mg/kg/injection, schedule: Q01DX005 (ip), vehicle: Klucel (hydroxypropylcellulose) (HPC)) and 114 % of control (dose: 25.0 mg/kg/injection, schedule: Q01DX005 (ip), vehicle: Klucel (hydroxypropylcellulose) (HPC)).

As for `COC(=O)C1=C(C(=O)OC)C2(C)NC1(C)c1c(C)ccc(C)c12`, the T/C is 103 % of control (dose: 42.5 mg/kg/injection, schedule: Q01DX001 (ip), vehicle: saline with Tween-80); 94 % of control (dose: 85.0 mg/kg/injection, schedule: Q01DX001 (ip), vehicle: saline with Tween-80); 89 % of control (dose: 170.0 mg/kg/injection, schedule: Q01DX001 (ip), vehicle: saline with Tween-80).

For the compound `CCc1nc(-c2ccccc2)nc2c1nc(-c1ccc(C)cc1)n2Nc1ccccc1`, the T/C (dose: 50.0 mg/kg/injection, schedule: Q01DX005 (ip), vehicle: Klucel (hydroxypropylcellulose) (HPC)) was 88 % of control; the T/C (dose: 100.0 mg/kg/injection, schedule: Q01DX005 (ip), vehicle: Klucel (hydroxypropylcellulose) (HPC)) is 90 % of control; the T/C (dose: 200.0 mg/kg/injection, schedule: Q01DX005 (ip), vehicle: Klucel (hydroxypropylcellulose) (HPC)) was 89 % of control.

As to `NC(Cc1ccccc1F)c1nn[nH]n1` (stereo not given), the T/C (dose: 25.0 mg/kg/injection, schedule: Q01DX009 (ip), vehicle: saline with Tween-80) is 108 % of control; the T/C under setting [4] is 97 % of control; the T/C under setting [5] is 99 % of control.

`O=[N+]([O-])c1ccc(CN2CCN(c3nccs3)CC2)cc1`: the T/C reads like this: (dose: 50.0 mg/kg/injection, schedule: Q01DX009 (ip), vehicle: Klucel (hydroxypropylcellulose) (HPC)) 101 % of control; (dose: 100.0 mg/kg/injection, schedule: Q01DX009 (ip), vehicle: Klucel (hydroxypropylcellulose) (HPC)) 105 % of control; (dose: 200.0 mg/kg/injection, schedule: Q01DX009 (ip), vehicle: Klucel (hydroxypropylcellulose) (HPC)) 105 % of control.

For the compound `COc1ccc(CCC(=O)O)c(C(CC(=O)O)C(=O)O)c1OS(=O)(=O)c1ccc(C)cc1` (stereo not given), the T/C runs as follows: under setting [4], 94 % of control; under setting [5], 105 % of control; under setting [6], 97 % of control.

As for `CN(C)CC(CN(C)C)C(=O)c1ccccc1`, the T/C is, setting by setting: (dose: 3.12 mg/kg/injection, schedule: Q01DX009 (ip), vehicle: saline) 103 % of control and 105 % of control; (dose: 6.25 mg/kg/injection, schedule: Q01DX009 (ip), vehicle: saline) 105 % of control (2×) and 122 % of control; (dose: 12.5 mg/kg/injection, schedule: Q01DX009 (ip), vehicle: saline) 107 % of control and 117 % of control and 112 % of control; (dose: 25.0 mg/kg/injection, schedule: Q01DX009 (ip), vehicle: saline) 117 % of control [middle of 5 runs]; under setting [7], 124 % of control.

On to `COC(=O)C(CSC(c1ccccc1)(c1ccccc1)c1ccccc1)NC(=O)C(CC(N)=O)NC(=O)OCc1ccccc1` (stereo not drawn) (Cbz-Asn-Cys(Trt)-OMe; configuration not given here), for which the T/C (dose: 12.5 mg/kg/injection, schedule: Q01DX009 (ip), vehicle: distilled water + Tween-80) is 92 % of control; the T/C (dose: 25.0 mg/kg/injection, schedule: Q01DX009 (ip), vehicle: distilled water + Tween-80) is 97 % of control; the T/C (dose: 50.0 mg/kg/injection, schedule: Q01DX009 (ip), vehicle: distilled water + Tween-80) was 122 % of control and 94 % of control; the T/C (dose: 200.0 mg/kg/injection, schedule: Q01DX009 (ip), vehicle: distilled water + Tween-80) is 163 % of control.

Take `O=C1NC2CCCC1C(c1ccccc1)NC2c1ccccc1` (stereo not given): the T/C was 98 % of control under setting [1], 99 % of control under setting [2] and 100 % of control under setting [3].

In the case of `CC(=S)NC(O)C(=O)c1ccccc1` (stereo not given), under setting [4], the T/C was 121 % of control.

Take `Nc1nc2c(c(=O)[nH]1)N(C(=O)CCCC(=O)O)C(CN(C(=O)CCCC(=O)O)c1ccc(C(=O)NC(CCC(=O)O)C(=O)O)cc1)CN2` (stereo not given) (tested in a mixture with another compound): the T/C under setting [7] is 94 % of control; the T/C (dose: 100.0 mg/kg/injection, schedule: Q01DX009 (ip), vehicle: saline) is 110 % of control; the T/C (dose: 200.0 mg/kg/injection, schedule: Q01DX009 (ip), vehicle: saline) was 95 % of control.

As for `O=C(OC1CC2CCC1C2)c1cc([N+](=O)[O-])cc([N+](=O)[O-])c1` (stereo not given), the T/C under setting [4] was 107 % of control; the T/C under setting [5] was 100 % of control; the T/C (dose: 100.0 mg/kg/injection, schedule: Q04DX002 (ip), vehicle: saline with Tween-80) is 108 % of control; the T/C under setting [6] was 90 % of control; the T/C (dose: 200.0 mg/kg/injection, schedule: Q04DX002 (ip), vehicle: saline with Tween-80) is 105 % of control; the T/C (dose: 400.0 mg/kg/injection, schedule: Q04DX002 (ip), vehicle: saline with Tween-80) is 100 % of control.

With `NCCNCC(O)CO` (stereo not given), the T/C by setting is: (dose: 50.0 mg/kg/injection, schedule: Q01DX005 (ip), vehicle: saline + Tween-80 + alcohol) 102 % of control; (dose: 100.0 mg/kg/injection, schedule: Q01DX005 (ip), vehicle: saline + Tween-80 + alcohol) 102 % of control; (dose: 200.0 mg/kg/injection, schedule: Q01DX005 (ip), vehicle: saline + Tween-80 + alcohol) 99 % of control.

For `O=C(O)C(=O)O.[Mn]`, the T/C (dose: 100.0 mg/kg/injection, schedule: Q04DX003 (ip), vehicle: saline with Tween-80) is 86 % of control.
